Patent US20110263594A1, “NOVEL TRIAZOLO(4,3-A)PYRIDINE DERIVATIVES, PROCESS FOR THE PREPARATION THEREOF, USE THEREOF AS MEDICAMENTS, PHARMACEUTICAL COMPOSITIONS AND NOVEL USE, IN PARTICULAR AS MET INHIBITORS” (SANOFI-AVENTIS, priority 2008, published 2011)
Structures can show the parent of a compound that is named as a salt.

Experiments:
MET [1] = target: T1, MET (Homo sapiens, UniProt P08581); test: Test A: HTRF MET assay in 96-well format; format: biochemical; design: The His-Tev-MET (956-1390) recombinant DNA in pFastBac (Invitrogen) is transfected into insect cells; His-Tev (histidine tag with TEV cleavage site) (N, cleaved yes); made in house; host or cells: SF21 insect cells (baculovirus, pFastBac); conditions: MET 5 nM, 10 μM ATP, poly-(GAT)
Experimental: The His-Tev-MET (956-1390) recombinant DNA in pFastBac (Invitrogen) is transfected into insect cells and, after several viral amplification steps, the final baculovirus stock is tested for the expression of the protein of interest.
After infection for 72 h at 27° C. with the recombinant virus, SF21 cell cultures are harvested by centrifugation and the cell pellets are stored at −80° C.
The cell pellets are resuspended in the lysis buffer (buffer A [50 mM HEPES, pH 7.5, 250 mM NaCl, 10% glycerol, 1 mM TECP]; +cocktail of protease inhibitors, Roche Diagnostics, without EDTA, ref 1873580), stirred at 4° C. until the mixture is homogeneous, and then lysed mechanically using a “Dounce” type apparatus.
After centrifugation, the lysis supernatant is incubated for 2 h at 4° C. with nickel chelate resin (His-Trap 6 Fast Flow™, GE HealthCare). After washing with 20 volumes of buffer A, the suspension is packed into a column, and the proteins are eluted with a gradient of buffer B (buffer A+290 mM imidazole).
The fractions containing the protein of interest, for the purpose of electrophoretic analysis (SDS PAGE), are combined, concentrated by ultrafiltration (10 kDa cut-off) and injected onto an exclusion chromatography column (Superdex™ 200, GE HealthCare) equilibrated in buffer A.
After enzymatic cleavage of the histidine tag, the protein is reinjected onto a new IMAC nickel chelate chromatography column (His-Trap 6 Fast Flow™, GE HealthCare) equilibrated in buffer A. The fractions eluted with a gradient of buffer B and containing the protein of interest after electrophoresis (SDS PAGE) are finally combined and stored at −80° C.
For the production of autophosphorylated protein, the previous fractions are incubated for 1 h at ambient temperature after the addition of 2 mM ATP, 2 mM MgCl2 and 4 mM Na3VO4. After the reaction has been stopped with 5 mM of EDTA, the reaction mixture is injected onto a HiPrep desalifying column (GE HealthCare) pre-equilibrated in buffer A+4 mM Na3VO4, and the fractions containing the protein of interest (SDS PAGE analysis) are combined and stored at −80° C. The degree of phosphorylation is verified by mass spectrometry (LC-MS) and by peptide mapping.
MET at a final concentration of 5 nM is incubated in a final volume of 50 μl of enzymatic reaction in the presence of the test molecule (for a final concentration range of from 0.17 nM to 10 μM, 3% DMSO final concentration) in 10 mM MOPS buffer, pH 7.4, 1 mM DTT, 0.01% Tween 20. The reaction is initiated with the substrate solution to obtain final concentrations of 1 μg/ml poly-(GAT), 10 μM ATP and 5 mM MgCl2. After incubation for 10 min at ambient temperature, the reaction is stopped with a 30 μl mix so as to obtain a final solution of 50 mM Hepes, pH 7.5, 500 mM potassium fluoride, 0.1% BSA and 133 mM EDTA in the presence of 80 ng of streptavidin 61SAXLB Cis-Bio Int. and 18 ng of anti-phosphotyrosine Mab PT66-Europium Cryptate per well. After incubation for 2 hours at ambient temperature, the reading is taken at 2 wavelengths, 620 nm and 665 nm, on a reader for the TRACE/HTRF technique, and the % inhibition is calculated from the 665/620 ratios.
Target sequence in this assay (P08581 956-1390): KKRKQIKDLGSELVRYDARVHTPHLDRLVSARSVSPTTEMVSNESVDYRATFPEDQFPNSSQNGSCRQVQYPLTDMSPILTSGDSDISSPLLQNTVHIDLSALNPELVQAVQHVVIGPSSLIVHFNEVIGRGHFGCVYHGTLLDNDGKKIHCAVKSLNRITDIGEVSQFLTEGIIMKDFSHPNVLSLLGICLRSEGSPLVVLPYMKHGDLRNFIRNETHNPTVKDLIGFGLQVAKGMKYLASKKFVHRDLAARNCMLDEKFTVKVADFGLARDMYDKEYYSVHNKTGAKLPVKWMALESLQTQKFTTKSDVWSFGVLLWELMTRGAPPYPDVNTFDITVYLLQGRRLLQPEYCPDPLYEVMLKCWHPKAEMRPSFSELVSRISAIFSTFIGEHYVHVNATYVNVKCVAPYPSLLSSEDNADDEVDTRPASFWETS

[2] = tested on: HCT116 cells and MKN45 cells; test: Test C: measurement of cell proliferation by 14C-thymidine pulse; format: cell-based; conditions: 14C-thymidine incorporation, 96 h of treatment; cell line not given
Experimental: The cells are seeded into Cytostar 96-well plates in 180 μl for 4 hours at 37° C. and 5% CO2: HCT116 cells in a proportion of 2500 cells per well in DMEM medium+10% foetal calf serum+1% L-glutamine, and MKN45 cells in a proportion of 7500 cells per well in RPMI medium+10% foetal calf serum+1% L-glutamine. After these 4 hours of incubation, the products are added in 10 μl as a […] concentrated solution according to the dilution method mentioned for the ELISA. The products are tested at 10 concentrations in duplicate from 10 000 nM to 0.3 nM with an increment of 3.
After treatment for 72 h, 10 μl of ^14C-thymidine at 10 μCi/ml are added so as to obtain 0.1 μCi per well. The ^14C-thymidine incorporation is measured on a Micro-Beta machine (Perkin-Elmer) after 24 hours of pulse and 96 h of treatment.
All the steps of the assay are automated on BIOMEK 2000 or TECAN stations.

MET [3] = target: T1, MET; test: Test B: inhibition of the autophosphorylation of MET, ELISA technique (pppY1230,1234,1235) in MKN45 cells; format: cell-based; design: endogenous in cells; host or cells: MKN45 cells; conditions: 1 h treatment, phosphoMET ELISA
Experimental: B) Test B: Inhibition of the autophosphorylation of MET; ELISA technique (pppY1230,1234,1235) a) Cell lysates: MKN45 cells are seeded into 96-well plates (cell coat BD polylysine) at 20 000 cells/well in 200 μl in RPMI medium+10% FCS+1% L-glutamine. They are left to adhere for 24 hours in an incubator.
The cells are treated the day after seeding with the products at 6 concentrations, in duplicate, for 1 h. At least 3 control wells are treated with the same final amount of DMSO.
Product dilution: Stock at 10 mM in pure DMSO—range from 10 mM to 30 μM with an increment of 3 in pure DMSO—intermediate dilutions to 1/50 in culture medium and then removal of 10 μl added directly to the cells (200 μl): final range of 10 000 to 30 nM.
At the end of the incubation, the supernatant is carefully removed and rinsing is performed with 200 μl of PBS. Next, 100 μl of lysis buffer are placed directly in the wells on ice and incubated at 4° C. for 30 minutes. Lysis buffer: 10 mM Tris HCl, pH 7.4, 100 mM NaCl, 1 mM EDTA, 1 mM EGTA, 1% Triton X-100, 10% glycerol, 0.1% SDS, 0.5% deoxycholate, 20 mM NaF, 2 mM Na3VO4, 1 mM PMSF and cocktail of antiproteases.
The 100 μl of lysates are transferred into a V-bottomed polypropylene plate and the ELISA is performed immediately, or the plate is frozen at −80° C.
70 μl of kit dilution buffer+30 μL of cell lysate, or 30 μl of lysis buffer for the blanks, are added to each well of the kit plate. Incubation is carried out for 2 h with gentle agitation at ambient temperature.
The wells are rinsed 4 times with 400 μl of kit washing buffer. Incubation is carried out with 100 μl of anti-phospho MET antibody for 1 hour at ambient temperature.
The wells are rinsed 4 times with 400 μl of kit washing buffer. Incubation is carried out with 100 μl of anti-rabbit HRP antibody for 30 minutes at ambient temperature (except for the wells of chromogen alone).
The wells are rinsed 4 times with 400 μl of kit washing buffer. 100 μL of chromogen are introduced and incubation is carried out for 30 minutes in the dark at ambient temperature.
The reaction is stopped with 100 μl of stop solution. The plate is read without delay at […], 0.1 second on a Wallac Victor plate reader.
Target sequence in this assay (P08581 25-1390): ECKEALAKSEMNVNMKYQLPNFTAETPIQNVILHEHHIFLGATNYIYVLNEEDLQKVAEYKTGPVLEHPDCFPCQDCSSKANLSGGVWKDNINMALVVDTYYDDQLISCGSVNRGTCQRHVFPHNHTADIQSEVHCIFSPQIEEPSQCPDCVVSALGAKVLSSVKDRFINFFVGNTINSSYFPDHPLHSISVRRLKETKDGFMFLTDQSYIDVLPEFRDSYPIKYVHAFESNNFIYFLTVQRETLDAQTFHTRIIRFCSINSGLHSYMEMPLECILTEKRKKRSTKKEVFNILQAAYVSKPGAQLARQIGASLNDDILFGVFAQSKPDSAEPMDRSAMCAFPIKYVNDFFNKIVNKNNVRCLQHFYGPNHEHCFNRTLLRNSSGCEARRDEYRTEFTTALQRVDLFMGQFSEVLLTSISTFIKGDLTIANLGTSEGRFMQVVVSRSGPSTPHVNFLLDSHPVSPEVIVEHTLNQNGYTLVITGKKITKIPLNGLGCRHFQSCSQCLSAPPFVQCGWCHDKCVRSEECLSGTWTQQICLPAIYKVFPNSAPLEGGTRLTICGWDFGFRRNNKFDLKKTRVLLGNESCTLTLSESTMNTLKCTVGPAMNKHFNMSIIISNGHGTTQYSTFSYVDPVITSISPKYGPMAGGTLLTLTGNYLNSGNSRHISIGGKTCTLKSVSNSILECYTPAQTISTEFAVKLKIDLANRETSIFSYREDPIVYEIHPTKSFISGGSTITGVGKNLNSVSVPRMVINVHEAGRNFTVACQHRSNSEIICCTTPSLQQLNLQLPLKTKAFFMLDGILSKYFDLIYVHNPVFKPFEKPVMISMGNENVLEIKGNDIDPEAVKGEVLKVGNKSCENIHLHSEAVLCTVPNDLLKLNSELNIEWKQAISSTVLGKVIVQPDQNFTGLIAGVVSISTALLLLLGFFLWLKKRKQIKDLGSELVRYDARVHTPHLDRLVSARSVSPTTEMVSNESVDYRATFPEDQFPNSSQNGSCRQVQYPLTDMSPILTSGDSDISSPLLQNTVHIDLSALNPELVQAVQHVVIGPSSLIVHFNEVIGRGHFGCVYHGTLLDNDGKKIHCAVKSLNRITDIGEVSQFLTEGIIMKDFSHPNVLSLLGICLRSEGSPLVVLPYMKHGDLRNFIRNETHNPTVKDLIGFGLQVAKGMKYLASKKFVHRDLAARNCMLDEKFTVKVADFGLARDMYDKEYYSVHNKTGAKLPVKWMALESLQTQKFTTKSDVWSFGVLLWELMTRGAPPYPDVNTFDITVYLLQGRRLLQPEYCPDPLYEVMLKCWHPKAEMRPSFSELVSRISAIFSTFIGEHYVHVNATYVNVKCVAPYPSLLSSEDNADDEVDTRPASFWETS

Row | SMILES | melting point [°C] | IC50 (MET [1]) [nM] | IC50 [2] [nM] | IC50 (MET [3]) [nM]
1 | Nc1nc2ccc(Sc3nnc4ccccn34)cc2s1 [Example 1, 6-([1,2,4]triazolo[4,3-a]pyridin-3-ylsulphanyl)-1,3-benzothiazol-2-amine] | 260 to 266 | < 500 | – | –
2 | Cn1cc(-c2ccc3nnc(Sc4ccc5nc(N)sc5c4)n3c2)cn1 [Example 9, 6-{[6-(1-methyl-1H-pyrazol-4-yl)[1,2,4]triazolo[4,3-a]pyridin-3-yl]sulphanyl}-1,3-benzothiazol-2-amine] | – | < 100 | < 1000 | > 500
3 | Nc1nc2ccc(Sc3nnc4ccc(I)cn34)cc2s1 [Example 6, 6-[(6-iodo[1,2,4]triazolo[4,3-a]pyridin-3-yl)sulphanyl]-1,3-benzothiazol-2-amine] | – | < 100 | < 1000 | –
4 | O=C(Nc1nc2ccc(Sc3nnc4ccc(-c5cn[nH]c5)cn34)cc2s1)C1CC1 [Example 11, N-(6-{[6-(1H-pyrazol-4-yl)[1,2,4]triazolo[4,3-a]pyridin-3-yl]-sulphanyl}-1,3-benzothiazol-2-yl)cyclopropanecarboxamide] | > 260 | < 100 | < 1000 | < 100
5 | O=C(Nc1nc2ccc(Sc3nnc4ccc(-c5cnn(C6CCNCC6)c5)cn34)cc2s1)C1CC1 [Example 16, N-(6-{[6-(1-piperidin-4-yl-1H-pyrazol-4-yl)[1,2,4]triazolo[4,3-a]pyridin-3-yl]sulphanyl}-1,3-benzothiazol-2-yl)cyclopropanecarboxamide] | – | < 100 | < 1000 | < 100
6 | O=C(Nc1nc2ccc(Sc3nnc4ccccn34)cc2s1)C1CC1 [Example 2, N-[6-([1,2,4]triazolo[4,3-a]pyridin-3-ylsulphanyl)-1,3-benzothiazol-2-yl]cyclopropanecarboxamide] | 187 to 190 | < 100 | < 1000 | > 500
7 | Cc1ccc(-c2ccc3nnc(Sc4ccc5nc(NC(=O)C6CC6)sc5c4)n3c2)cc1F [Example 12, N-(6-{[6-((3-fluoro-4-methyl)phenyl)[1,2,4]triazolo[4,3-a]pyridin-3-yl]sulphanyl}-1,3-benzothiazol-2-yl)cyclopropanecarboxamide] | 191 | < 100 | < 1000 | < 100
8 | O=C(Nc1nc2ccc(Sc3nnc4ccc(-c5cccc(F)c5)cn34)cc2s1)C1CC1 [Example 13, N-(6-{[6-(3-fluorophenyl)[1,2,4]triazolo[4,3-a]pyridin-3-yl]sulphanyl}-1,3-benzothiazol-2-yl)cyclopropanecarboxamide] | > 260 | < 100 | < 1000 | < 100
9 | O=C(Nc1nc2ccc(Sc3nnc4ccc(-c5cnn(C6CCNCC6)c5)cn34)cc2s1)C1CC1 (as salt: hydrochloride) [Example 16, N-(6-{[6-(1-piperidin-4-yl-1H-pyrazol-4-yl)[1,2,4]triazolo[4,3-a]pyridin-3-yl]sulphanyl}-1,3-benzothiazol-2-yl)cyclopropanecarboxamide] | > 260 | – | – | –
10 | Nc1nc2ccc(Sc3nnc4ccc(-c5ccc(F)cc5)cn34)cc2s1 [Example 7, 6-{[6-(4-fluorophenyl)[1,2,4]triazolo[4,3-a]pyridin-3-yl]sulphanyl}-1,3-benzothiazol-2-amine] | > 264 | < 100 | < 1000 | < 100
11 | Cn1cc(-c2ccc3nnc(Sc4ccc5nc(NC(=O)C6CC6)sc5c4)n3c2)cn1 [Example 10, N-(6-{[6-(1-methyl-1H-pyrazol-4-yl)[1,2,4]triazolo[4,3-a]pyridin-3-yl]sulphanyl}-1,3-benzothiazol-2-yl)cyclopropanecarboxamide] | – | < 100 | < 1000 | < 100
12 | O=C(Nc1nc2ccc(Sc3nnc4ccc(-c5ccc(F)cc5)cn34)cc2s1)C1CC1 [Example 8, N-{6-[6-(4-fluorophenyl)[1,2,4]triazolo[4,3-a]pyridin-3-ylsulphanyl]-1,3-benzothiazol-2-yl}cyclopropanecarboxamide] | – | < 100 | < 1000 | < 100
13 | O=C(Nc1nc2ccc(Sc3nnc4ccc(-c5cnn(CCOC6CCCCO6)c5)cn34)cc2s1)C1CC1 (stereo not shown) [Example 14, N-(6-{[6-(1-[2-(tetrahydro-2H-pyran-2-yloxy)ethyl]-1H-pyrazol-4-yl)[1,2,4]triazolo[4,3-a]pyridin-3-yl]sulphanyl}-1,3-benzothiazol-2-yl)cyclopropanecarboxamide] | – | < 100 | < 1000 | < 100
14 | O=C(Nc1nc2ccc(Sc3nnc4ccc(-c5cnn(CCO)c5)cn34)cc2s1)C1CC1 [Example 15, N-(6-{[6-(1-(2-hydroxyethyl)-1H-pyrazol-4-yl)[1,2,4]triazolo[4,3-a]pyridin-3-yl]sulphanyl}-1,3-benzothiazol-2-yl)cyclopropanecarboxamide] | – | < 100 | < 1000 | < 100
